Experimental data from patent US10130629B2, “Pharmaceutical combinations” (Novartis AG, priority 2015, dated 2018).

Tests used:
[1] = test system: HuH-7 hepatocellular carcinoma cells; assay: Methylene blue staining proliferation assay (MBS); type: cell-based; settings: Homo sapiens, 72 hours after compound addition, read-out: HUH7 proliferation (nM) MBS
Experimental: Methylene blue staining proliferation assay (MBS): The effect of the compound on cell proliferation is assessed using HuH-7 hepatocellular carcinoma cells obtained from the Japanese Collection of Research Bioresources Cell Bank (Cat# JCRB0403) and cultured in the vendor-recommended medium (DMEM high glucose (Amimed Cat#1-26F01-I), 10% foetal calf serum (Invitrogen Cat#16140-071), 1 mM sodium pyruvate (Amimed Cat#5-60F00-H), 1× Penicillin/Streptomycin (Amimed Cat#4-01F00-H)) at 37° C. in a humidified 5% CO2 incubator. Specifically, 5000 cells/well were seeded in 96-well tissue culture plates (TPP Cat#92696) in a total media volume of 100 μl/well and increasing compound dilutions or DMSO were added 24 hours thereafter in triplicates. 72 hours after compound addition, cells were fixed by adding 25 μL/well of 20% glutaraldehyde (Sigma Aldrich Cat# G400-4) and incubated for 10 minutes at room temperature. Cells were washed three times with H2O, 200 μL/well and stained with 100 μL/well 0.05% methylene blue (ABCR GmbH Cat# AB117904) for 10 minutes at room temperature. Cells were washed 3 times with H2O, 200 μL/well and then lysed by adding 200 μL/well of 3% HCl (Fluka Cat#84422) for 30 minutes at room temperature with shaking. Optical density was measured at A650 nm. […]

[2] = test system: HuH-7 hepatocellular carcinoma cells; assay: CellTiter Glo (CTG) proliferation assay; type: cell-based; settings: Homo sapiens, Huh-7, 72 h; 3 days incubation; half-maximal growth inhibition; read-out: HUH7 proliferation (nM) CTG
Experimental: CellTiter Glo (CTG) assay: The functional effect of compounds on cell proliferation is assessed using HuH-7 hepatocellular carcinoma cells obtained from the Japanese Collection of Research Bioresources Cell Bank (Cat# JCRB0403) and cultured in the vendor-recommended medium (DMEM high glucose (Amimed Cat#1-26F01-I), 10% foetal calf serum (Invitrogen Cat#16140-071), 1 mM sodium pyruvate (Amimed Cat#5-60F00-H), 1× Penicillin/Streptomycin (Amimed Cat#4-01F00-H)) at 37° C. in a humidified 5% CO2 incubator. Compound-mediated suppression of cell proliferation/viability is assessed by quantification of cellular ATP levels using the CellTiter-Glo (CTG) reagent (Promega, Cat# G7573). […] Dose-response effects are assessed by 3-fold serial dilutions of the test compound, starting at 10 μM. Following incubation of the cells for 3 days at 37° C. and 5% CO2, the effect of inhibitors on cell viability is quantified following addition of 50 μl CTG and luminescence measurement (integration time: 500 ms) as per vendor manual, using a correspondingly equipped multi-mode plate reader (M200Pro, TECAN, Switzerland). For data analysis, the assay background value determined in wells containing medium, but no cells, is subtracted from all data points. […] Compound concentrations leading to half-maximal growth inhibition ([…]) are determined using standard four parameter curve fitting (XLfit 5.2., IDBS, UK).

IC50 [1]: 12 nM
IC50 [2]: 60.9 nM
SMILES: COCCNc1cc(NC(=O)N2CCCc3cc(CN4CCN(C)CC4=O)c(C=O)nc32)ncc1C#N [Example 83, N-(5-cyano-4-((2-methoxyethyl)amino)pyridin-2-yl)-7-formyl-6-((4-methyl-2-oxopiperazin-1-yl)methyl)-3,4-dihydro-1,8-naphthyridine-1(2H)-carboxamide]
